# Measured values taken from PubChem BioAssay (NCI).
# Several values for one entry are separate records, joined by “and”; a condition that tells them apart may be missing. Equal entries are not always repeated.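 Values below derive from 48-hour exposures of cells grown in 96-well plates, with endpoints linearly interpolated between the two concentrations bracketing the appropriate inhibition level. Here, GI50 denotes the concentration required for 50% inhibition of growth. TGI denotes the concentration required for complete inhibition of growth.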
# Columns and labels:
# Test in all cases: DTP human tumour cell line panel, 48 h
# SK-OV-3 ovarian = tested on: SK-OV-3 ovarian
# SK-MEL-2 melanoma = tested on: SK-MEL-2 melanoma
# EKVX NSCLC = tested on: EKVX NSCLC
# SF-539 CNS = tested on: SF-539 CNS
# HT29 colon = tested on: HT29 colon
# HCT-116 colon = tested on: HCT-116 colon
# M14 melanoma = tested on: M14 melanoma
# NCI-H460 lung = tested on: NCI-H460 lung
# NCI-H226 lung = tested on: NCI-H226 lung
# SR leukemia = tested on: SR leukemia
Compound,TGI (SK-OV-3 ovarian),TGI (SK-MEL-2 melanoma) [µM],TGI (EKVX NSCLC),TGI (SF-539 CNS) [µM],TGI (HT29 colon),TGI (HCT-116 colon),TGI (M14 melanoma) [µM],TGI (NCI-H460 lung),GI50 (SK-OV-3 ovarian) [µM],GI50 (SK-MEL-2 melanoma) [µM],GI50 (EKVX NSCLC) [µM],GI50 (SF-539 CNS) [µM],GI50 (NCI-H226 lung) [µM],TGI (NCI-H226 lung) [µM],GI50 (HT29 colon) [µM],GI50 (HCT-116 colon) [µM],GI50 (M14 melanoma) [µM],GI50 (NCI-H460 lung) [µM],TGI (SR leukemia),GI50 (SR leukemia) [µM]
CCNC(=O)O/N=C1\CCC2[C@@H]3CC=C4C[C@@H](OC(=O)NCC)CC[C@]4(C)C3CC[C@]12C (some centres undefined),19.7 µM,9.87,4.84 µM,> 100,13 µM,13.7 µM,3.23,10 µM,–,–,–,–,–,–,–,–,–,–,–,–
CCOC(=O)C(Oc1ccc(OC)c2c1C(=O)CCC2)c1ccccc1 (centres undefined),> 100 µM,> 100,> 100 µM,> 100,> 100 µM,> 100 µM,> 100,> 100 µM,–,–,–,–,–,–,–,–,–,–,–,–
C=C(CN1CCN(c2cc(C(F)(F)F)cc(C(F)(F)F)c2)CC1)c1ccc(C(=O)Nc2ccccc2N)cc1,> 100 µM,> 100,58.6 µM,> 100,4.75 µM,> 100 µM,> 100,> 100 µM,25.7,10.2,11.7,18,9.89,> 100,1.91,3.67,3.76,4.09,–,–
NP1(Oc2ccc(F)cc2)=NP(N)(Oc2ccc(F)cc2)=NP(Oc2ccc(F)cc2)(Oc2ccc(F)cc2)=N1 (centres undefined),27.2 µM,–,19 µM,27.5,17.2 µM,15.7 µM,19.4,13.5 µM,–,–,–,–,–,–,–,–,–,–,15.6 µM,–
CC(=O)O[C@H]1CSC[C@@H](OC(C)=O)C1[N+](=O)[O-] (some centres undefined),> 100 µM,66.9,> 100 µM,> 100,> 100 µM,> 100 µM,87.7,> 100 µM,–,–,–,–,–,> 100,–,–,–,–,–,–
Cc1ccccc1NC(=O)C(=O)C(C(=O)c1ccccc1F)C1OC(=O)c2ccccc21 (centres undefined),> 100 µM,65.4,> 100 µM,27.4,> 100 µM,29.1 µM,30.3,> 100 µM,–,–,–,–,–,14.3,–,–,–,–,–,–
Nc1ncc(CN2CCCC2)c(-c2ccccc2O)n1,> 750 µM,–,–,> 750,> 750 µM,> 750 µM,> 750,> 750 µM,–,–,–,–,–,> 750,–,–,–,–,> 750 µM,–
CN(C(=O)C12C3C4C1C1C2C3C41C#N)C(C)(C)C (centres undefined),> 100 µM,> 100,> 100 µM,> 100,> 100 µM,> 100 µM,> 100,> 100 µM,–,–,–,–,–,> 100,–,–,–,–,–,–
N/N=C1/C(=O)N(c2ccc(Cl)cc2)C(=O)C(=O)C1c1nc2ccccc2s1 (centres undefined),> 100 µM,> 100,> 100 µM,> 100,> 100 µM,> 100 µM,> 100,> 100 µM,–,–,–,–,–,–,–,–,–,–,–,–
CCCCCCCCCC(=O)Oc1ccc(/C(=C(/C)c2ccccc2)c2ccc(OCCN3CCCC3)cc2)cc1,14.8 µM,18.1,13.6 µM,16.9,–,15.7 µM,–,15.9 µM,7.36,9.49,6.92,8.7,9.42,18.5,–,8.01,–,8.46,19 µM,9.08
N#Cc1sc2nc3c(c(-c4ccccc4)c2c1N)CCCC3,> 100 µM,> 100,–,56.2,> 100 µM,> 100 µM,–,> 100 µM,–,–,–,–,–,> 100,–,–,–,–,> 100 µM,–
CC1=C(C(=S)Nc2ccc(Cl)c(C(=O)OC(C)C)c2)SCCO1,54.8 µM,48.9,54.4 µM,38.4,32.6 µM,28.6 µM,44,44.6 µM,–,–,–,–,–,44.6,–,–,–,–,–,–
CN(C)NC(=O)NC12CC3CC(CC(C3)C1)C2,> 100 µM,> 100,> 100 µM,> 100,> 100 µM,> 100 µM,–,> 100 µM,–,–,–,–,–,> 100,–,–,–,–,> 100 µM,–
COc1ccc(/C=C\c2cc(OC)c(OC)c(OC)c2)cc1NC(=O)/C=C/c1cc(OC)c(OC)c(OC)c1,–,–,> 100 µM,> 100,> 100 µM,> 100 µM,> 100,> 100 µM,–,–,> 100,3.95,4.15,> 100,3.55,3.83,3.15,3.61,> 100 µM,0.854
COc1cc(/C=N\Nc2ccccc2)ccc1OC(=O)c1ccccc1,> 100 µM,60,–,2.22,17.7 µM,> 100 µM,15.8,> 46 µM,45.6,2.1,–,0.486,10.2,> 77.6,3.72,5.76,0.677,1.22,> 100 µM,16.5
COc1cc([C@@H]2c3cc4c(cc3[C@@H](OC3OC5COC(C)OC5C(O)C3O)[C@H]3COC(=O)[C@H]23)OCO4)cc(OC)c1O (some centres undefined),62.3 µM and 500 µM and 120 µM,–,149 µM and 500 µM and 183 µM,–,79.8 µM and 500 µM and 125 µM,25.8 µM and 90.4 µM and 130 µM,–,57 µM and 9.96 µM and 25.3 µM,–,–,–,–,–,–,–,–,–,–,84.8 µM and 26.1 µM and 13.3 µM,–
Cc1nc2ccccc2c(=O)n1/N=C(\N=Nc1cc(Cl)ccc1Cl)c1ccc(N(C)C)cc1,> 100 µM,–,> 100 µM,> 100,> 100 µM,> 100 µM,–,> 100 µM,–,–,–,–,–,–,–,–,–,–,–,–
CCOC(=O)C(=O)CC(=O)C(Br)C(Br)c1ccc(Cl)cc1 (centres undefined),> 100 µM,> 100,> 100 µM,–,34.7 µM,–,50.7,> 100 µM,–,–,–,–,–,–,–,–,–,–,–,–
CN1CCN(Cc2ccc(NC(=O)c3cncc(C#Cc4c(N)ncc5ccccc45)c3)cc2C(F)(F)F)CC1,2.01 µM,1.72,1.26 µM,1.13,1.04 µM,0.892 µM,0.885,1.04 µM,1.13,0.782,0.572,0.532,–,–,0.18,0.257,0.203,0.344,3.7 µM,0.259
NN=C1/C(=C\c2ccccc2)CCC/C1=C/c1ccccc1,> 100 µM,> 100,89.1 µM,> 100,–,> 100 µM,> 100,> 100 µM,–,–,–,–,–,–,–,–,–,–,–,–
